Here are results for one compound from publication PMC11401973, “A novel small molecule ZYZ384 targeting SMYD3 for hepatocellular carcinoma via reducing H3K4 trimethylation of the Rac1 promoter” (MedComm, 2024).

For data set [1], the target named is T1, SMYD3-GST tag protein (Homo sapiens, UniProt Q9H7B4).
T1 construct: purchased BPS Bioscience
T1 sequence (Q9H7B4 1-428): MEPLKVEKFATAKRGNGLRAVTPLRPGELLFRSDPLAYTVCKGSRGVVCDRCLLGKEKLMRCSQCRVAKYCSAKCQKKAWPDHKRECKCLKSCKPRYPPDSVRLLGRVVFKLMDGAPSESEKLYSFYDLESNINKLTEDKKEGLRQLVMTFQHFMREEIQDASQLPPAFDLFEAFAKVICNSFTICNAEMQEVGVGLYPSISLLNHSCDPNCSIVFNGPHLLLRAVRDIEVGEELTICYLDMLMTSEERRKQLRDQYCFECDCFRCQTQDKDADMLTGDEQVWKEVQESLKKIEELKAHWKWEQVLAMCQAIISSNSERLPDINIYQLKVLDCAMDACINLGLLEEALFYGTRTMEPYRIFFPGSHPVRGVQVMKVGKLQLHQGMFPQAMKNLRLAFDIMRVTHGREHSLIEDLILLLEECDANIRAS
The experiment in a line: Biolayer interferometry (BLI) binding assay. To be noted: steady-state analysis, read-out: equilibrium dissociation constant (K D). As for the experimental part: Next, to test the binding affinity of novel small molecules to SMYD3, BLI analyses were performed to determine the binding affinity of the two series of novel small molecules targeting SMYD3. SMYD3‐glutathione S‐transferase (GST)‐tagged protein was immobilized onto GST biosensors and used to determine the binding affinity of all respective small molecules and labeled probes. The binding and dissociation curves were generated in real time by applying the SMYD3‐GST label proteins onto the biosensor surfaces, followed by monitoring small molecules interaction across several concentrations. […] SMI1 has been renamed ZYZ384 and further tested for anticancer activities using both in vitro and in vivo models.
The SMYD3‐GST tag protein (BPS Bioscience) was immobilized onto a GST biosensor (Fortebio). ZYZ384 was tested across the concentrations range of 6.25–200 µM. After baseline setup using Phosphate buffer saline (PBS), the biosensor tips were immersed in wells containing ZYZ384 continuous diluent for 180 s to combine, followed by a 180‐s dissociation step. They calculated K D value with a 1:1 model in data analysis software 9.0 (Fortebio).

Data set [2] addresses T2, SMYD3 (Homo sapiens, UniProt Q9H7B4).
T2 construct: purchased BPS Bioscience
T2 sequence (Q9H7B4 1-428): T1 sequence (Q9H7B4 1-428)
Description: SMYD3 homogeneous assay kit (AlphaELISA). It counts as biochemical. To be noted: different concentrations, 3 h incubation. As for the experimental part: The homogeneous assay kit was used to evaluate ZYZ384 inhibition activity on SMYD3. As we know, SMYD3 can catalyze the di‐ and tri‐methylation status of lysine4 of histone H3. This protein is also reported to drive the methylation of a lysine residue present in the protein […] (MAP3K2). Therefore, a series of different concentrations of ZYZ384 were incubated with SMYD3, and the activity was determined using the kit.
The commercial SMYD3 homogenous assay kit is designed to detect SMYD3 activity for screening and analytical applications. The SMYD3 homogenous assay kit is available in a convenient AlphaELISA format with GST‐labeled SMYD3 substrate, primary antibody, methylation detection buffer, and purification of SMYD3 for 384 enzyme reactions. The key to the SMYD3 homogenous assay is a particular antibody that recognizes methylated substrates. Using the kit, methyltransferase can be detected in three simple steps on a microtitration plate. First, samples containing the SMYD3 enzyme and ZYZ384 in different dosages were incubated in substrates for 3 h. Next, the receptor bead and primary antibody are added, the donor bead is added, and the Alpha counts are recorded.

Data set [3] relates to A549 cells. Description: MTT cell viability. It counts as cell-based. As to conditions: Homo sapiens, 24 h. As for the experimental part:
(§1) The cytotoxicity of ZYZ384 was determined across several different cancer cell lines. 3‐(4,5‐Dimethylthiazol‐2‐yl)‐2,5‐diphenyltetrazolium bromide (MTT) assay was used to assess cell viability. […] The cancer cell lines tested include human liver carcinoma cell HepG2, adenocarcinoma human alveolar basal epithelial cell A549, human colon carcinoma cell HTC116, human breast adenocarcinoma cell MDA‐MB‐231, and human pancreatic adenocarcinoma cell Miapaca2. […] In addition, ZYZ384 had low toxicity when tested in normal liver cells (LO2; Figure 3H).
(§2) Human HepG2, A549, HCT116, MDA‐MB‐231, and Miapaca2 cells were purchased from American Type Culture Collection (ATCC) and cultured in DMEM medium supplemented with 1% penicillin/streptomycin and 10% FBS at 37°C under 5% CO2 atmosphere and 95% air. Trypsin EDTA was used for cell passage.
(§3) Cell viability was assessed in several cancer cell lines and determined using the MTT assay in a 96‐well plate format. In brief, cells from […] medium (1 × 10^4/well) were inoculated in 96‐well plates and treated with ZYZ384. After 24 h of treatment, cell viability was determined by adding 1 mg/mL MTT‐containing medium for 4 h, followed by […] Dimethyl sulfoxide (DMSO) to dissolve formazan. The absorbance at 570 nm was recorded using a microplate ultraviolet/visible (UV/VIS) spectrophotometer (Tecan).

Data set [4] deals with HCT116 cells. The experiment in a line: MTT cell viability. Format: cell-based. To be noted: Homo sapiens, HCT-116, 24 h. The protocol:
as §1, §2, §3

For data set [5], the system named is HepG2 cells. The experiment in a line: MTT cell viability. Format: cell-based. To be noted: Homo sapiens, 24 h. As for the experimental part:
as §1, §2, §3

Data set [6] has as its system MDA-MB-231 cells. Description: MTT cell viability. It counts as cell-based. To be noted: Homo sapiens; MDA-MB-231, MTT, 24 h. The protocol:
as §1, §2, §3

Data set [7] deals with Miapaca2 cells. Description: MTT cell viability. Format: cell-based. To be noted: Homo sapiens, MIA PaCa-2, 24 h. As for the experimental part:
as §1, §2, §3

Data set [8] deals with Huh7 cells. The experiment in a line: MTT cell viability. Format: cell-based. To be noted: Homo sapiens, Huh-7, 24 h.
For data set [9], the system named is LO2 cells. Description: MTT cell viability, normal liver cells. Format: cell-based, human. The protocol:
as §1, §3

Data set [10] deals with SMYD3. Description: SMYD3 overexpression by transfection in LO2 cells and ZYZ384 treatment. It counts as cell-based, human. As to conditions: LO2 transfected with SMYD3 OE plasmid, 24 h treatment. As for the experimental part:
as §1
SMYD3 overexpression (SMYD3 OE) plasmid (Sino Biological) was mixed with lipofectamine 2000 for plasmid transfection. After transfection for 6 h, cells were exposed to the indicated ZYZ384 treatments for another 24 h.

Data set [11] relates to C57BL/6 mice. Description: Short-term toxicity study of C57BL/6 mice. It counts as in vivo. As to conditions: oral. As for the experimental part: The toxicity of ZYZ384 (Figure 4A) was determined using C57BL/6 mice in pilot studies to assess the safety and the maximum‐tolerable dose (MTD) determined (as shown in Figure 4B). No toxicity was reported in C57BL/6 mice orally administrated with 2 g/kg of ZYZ384 one time, and a survival rate of 100% was reached after 2 weeks of treatment. No abnormalities in food and water consumption are reported during this time, nor any unusual spontaneous activities; a reported […] for ZYZ384 >2 g/kg is noted for the current work.
C57BL/6 mice were randomly divided into two groups (n = 10) to determine the short‐term toxicity of ZYZ384. Mice were given the maximum dose of 2 g/kg orally administered ZYZ384 once, while the control group was treated with the same volume of sterilized water. The health conditions of all mice were monitored for 2 weeks.

In data set [12] the test system is HepG2 tumors. Description: HepG2 tumor-bearing nude mouse model (CDX). Format: in vivo, nude mice. As for the experimental part: The in vivo antitumor effect of ZYZ384 was assessed using a HepG2 tumor‐bearing nude mouse model (cell‐derived xenograft, CDX; Figure 4D).
The tumor‐bearing nude mice model was established by direct injection of hepG2 cells into the left armpit of nude mice. Animals were subsequently divided into five groups (n = 7). All compounds were applied via intragastric administration, and sorafenib was used as the positive control. Other groups, except the control group, were treated with different concentrations of ZYZ384. Body weight and tumor volume were monitored and recorded throughout the treatment period.

The subject of data set [13] is SMYD3. The experiment in a line: SMYD3 expression in tumor tissue (Western blot). As to conditions: ZYZ384 treatment groups versus control group. Format: in vivo, nude mice. The protocol:
(§4) In order to explore the antitumor mechanism of ZYZ384, the inhibitory effect of ZYZ384 on SMYD3 was determined in tumor tissues. […] In parallel, the expression of H3K4me3 was also noted to decrease in a similar pattern to that of SMYD3 (Figure 5B). The tumor tissues from control and high‐dosage treatment group animals were isolated. Since SMYD3 can tri‐methylated H3K4, ChIP‐seq analysis was used. This method allowed for annotating H3K4me3 occupancy on genes (Figure 5C). Global H3K4me3 occupancy decreased near annotation genes' transcription start site (TSS; Figure 5D). H3K4me3 is often enriched at activated promoters near TSSs. When combined with Kyoto Encyclopedia of Genes and Genomes (KEGG) pathway enrichment analysis (Figure 5E) and Gene Ontology (GO) functional enrichment analysis (Figure 5F), attention focus on the AKT pathway, cell proliferation, and migration functions. Visualized reads and signal strength of H3K4me3 for the Rac1 gene at the promoter region decreased following treatment with ZYZ384 (Figure 5G). […]
(§5) Isolated protein (30 µg) was obtained from tissues, separated on a sodium dodecyl sulfate‐polyacrylamide gel electrophoresis (SDS‐PAGE) gel, and transferred to a polyvinylidene fluoride membrane. […] The immunoreactive protein is visualized by enhanced chemiluminescence, and the signal intensity was detected and quantified using ImageJ.

The subject of data set [14] is H3K4me3. The experiment in a line: H3K4me3 expression in tumor tissue (Western blot). Format: in vivo, nude mice. To be noted: ZYZ384 treatment groups versus control group. As for the experimental part:
as §4, §5

Data set [15] can be described thus: Water solubility. It counts as physicochemical. From the text:
We were granted a Chinese patent (CN114246851A) to protect the structure and activity of ZYZ384, the effectiveness of ZYZ384 at high concentrations presents a challenge for future clinical use. […] Currently, we are trying to transform it into hydrochloride or culture cocrystallization to improve its solubility, bioavailability, and druggability. Drug resistance and combination therapy of ZYZ384 on other models will be gradually carried out in the follow‐up work. Although we developed a small molecule targeting SMYD3, we still need to figure out whether it is a selective inhibitor, and related research is to be continued.

`COc1ccc(/N=C2/c3ccccc3/C(=N/c3ccc(OC)cc3)C2(C)C)cc1` [ZYZ384, (1Z,3Z)-N1,N3-bis(4-methoxyphenyl)-2,2-dimethyl-1H-indene-1,3(2H)-diimine]: in data set [1], the Kd is 78 µM. The “SMYD3 activity (alpha counts)” value in data set [2] is listed as “inhibits SMYD3 in a concentration‐dependent manner”. Besides, the half-inhibitory concentration (IC50) worked out at 20.7 µM in data set [3]; 15.2 µM in [4]; 5.23 µM in [5]; 7.28 µM in data set [6]; 13.8 µM in [7]; 5.45 µM in data set [8]. The compound further yielded an IC50 in data set [9] (Homo sapiens, L02, LO2 normal liver cells, MTT, 24 h) of 26.7 µM. Moreover, the “toxicity in normal liver cells” value in [9] (LO2) is listed as “low toxicity”. Also, the SMYD3 overexpression result in data set [10] is listed as “suppressed”. Moreover, the LD5 in data set [11] is over 2 g/kg. For the same compound, in data set [11] (2 g/kg one time, 2 weeks observation), the toxicity result is reported as “No toxicity”. Besides, the survival rate in [11] (2 g/kg, after 2 weeks) is 100%. Besides, in data set [12] (HepG2 tumor-bearing nude mice), the “body weight changes during treatment” value is “no noticeable body weight changes”. Also, the “growth suppression in HepG2 tumors” value in [12] (nude mice, 100 mg/kg intragastric, versus sorafenib 100 mg/kg) is “better than that of sorafenib”. Further, the “SMYD3 expression in tumor tissues” value in [13] is “significantly diminished”. For the same compound, in data set [14], the “expression of H3K4me3 in tumor tissues” value is listed as “decrease”. Moreover, the water solubility result in data set [15] is recorded as “poor water solubility”.
